Drawing on patent US20260132140A1, “IMIDAZOLYL-AMINO-PYRAZINE-CARBONITRILS AS CHK-1 INHIBITORS” (BenevolentAI Bio Limited, priority 2022, published 2026), this text covers IC50 for 28 compounds.

Experiment [1] addresses human Chk2 kinase (Homo sapiens, UniProt O96017). Put plainly: biochemical.
The target in experiment [2] is T1, human Chk1 kinase (Homo sapiens, UniProt O14757).
T1 sequence (O14757 1-476): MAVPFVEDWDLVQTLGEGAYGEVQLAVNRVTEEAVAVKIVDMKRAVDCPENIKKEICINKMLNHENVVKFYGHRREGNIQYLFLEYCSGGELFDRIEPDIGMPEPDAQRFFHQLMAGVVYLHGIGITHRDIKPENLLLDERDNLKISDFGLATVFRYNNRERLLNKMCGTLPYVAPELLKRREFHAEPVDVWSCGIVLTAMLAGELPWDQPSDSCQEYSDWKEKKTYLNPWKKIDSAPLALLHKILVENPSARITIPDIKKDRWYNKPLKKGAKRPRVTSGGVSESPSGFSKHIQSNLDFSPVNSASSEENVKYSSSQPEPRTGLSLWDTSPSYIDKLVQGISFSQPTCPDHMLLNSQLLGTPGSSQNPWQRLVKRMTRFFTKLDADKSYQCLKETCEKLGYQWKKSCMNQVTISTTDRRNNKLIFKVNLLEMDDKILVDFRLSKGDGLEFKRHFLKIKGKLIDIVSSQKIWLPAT
Put plainly: biochemical.

human Chk2 kinase, sequence (O96017 whole entry): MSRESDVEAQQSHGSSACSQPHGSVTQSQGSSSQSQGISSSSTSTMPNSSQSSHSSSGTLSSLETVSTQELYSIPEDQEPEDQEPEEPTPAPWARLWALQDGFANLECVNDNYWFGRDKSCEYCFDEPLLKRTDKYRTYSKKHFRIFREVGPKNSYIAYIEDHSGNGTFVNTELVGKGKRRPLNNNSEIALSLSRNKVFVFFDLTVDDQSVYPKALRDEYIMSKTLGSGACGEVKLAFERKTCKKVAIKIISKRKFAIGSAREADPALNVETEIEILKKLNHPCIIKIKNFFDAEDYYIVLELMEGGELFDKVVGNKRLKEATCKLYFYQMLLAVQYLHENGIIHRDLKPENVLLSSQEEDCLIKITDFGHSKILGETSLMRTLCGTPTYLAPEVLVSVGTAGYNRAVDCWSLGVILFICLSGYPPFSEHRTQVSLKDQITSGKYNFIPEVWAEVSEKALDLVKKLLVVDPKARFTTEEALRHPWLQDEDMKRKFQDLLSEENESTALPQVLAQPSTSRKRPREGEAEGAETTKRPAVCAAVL

In general, IC50 refers to the concentration that inhibits the measured activity by half. A lower IC50 goes with higher potency. `CN1CC[C@@H](N(C)c2ccc(-n3cnc(Nc4cnc(C#N)cn4)c3)cc2)C1` [Example 94, (R)-5-((1-(4-(Methyl(1-methylpyrrolidin-3-yl)amino)phenyl)-1H-imidazol-4-yl)amino)pyrazine-2-carbonitrile]: the figures for the IC50 in experiment [1] and in experiment [2] were 10000 to 100000 nM and 31.6 to 100 nM, respectively. The matching figures for `Cc1cc(CN2CC[C@@H](F)C2)cc(C(F)(F)F)c1-n1cnc(Nc2cnc(C#N)cn2)c1` [Example 54, (R)-5-((1-(4-((3-Fluoropyrrolidin-1-yl)methyl)-2-methyl-6-(trifluoromethyl)phenyl)-1H-imidazol-4-yl)amino)pyrazine-2-carbonitrile]: above 100000 nM and 100 to 316 nM. Turning to `CN1C[C@@H]2CC[C@H]1CN2c1ccc(-n2cnc(Nc3cnc(C#N)cn3)c2)cc1` [Example 42, 5-((1-(4-((1S,4S)-5-Methyl-2,5-diazabicyclo[2.2.2]octan-2-yl)phenyl)-1H-imidazol-4-yl)amino)pyrazine-2-carbonitrile], the half-maximal inhibitory concentration (IC50) is 10000 to 100000 nM in experiment [1] and below 10 nM in experiment [2]. In the case of `CN1CCC2(CC1)CCN(c1cccc(-n3cnc(Nc4cnc(C#N)cn4)c3)c1)C2` [Example 39, 5-((1-(3-(8-Methyl-2,8-diazaspiro[4.5]decan-2-yl)phenyl)-1H-imidazol-4-yl)amino)pyrazine-2-carbonitrile], the IC50 in experiment [1] was in the range of 10000 to 100000 nM; in experiment [2] it was 10 to 31.6 nM.

Regarding `CN(C)[C@@H]1CCN(c2cnc(-n3cnc(Nc4cnc(C#N)cn4)c3)nc2)C1` [Example 82, (R)-5-((1-(5-(3-(Dimethylamino)pyrrolidin-1-yl)pyrimidin-2-yl)-1H-imidazol-4-yl)amino)pyrazine-2-carbonitrile], the IC50 in experiment [1] lay in the range of 1000 to 10000 nM; in experiment [2] it was 31.6 to 100 nM. As to `CN(CCO)C1CCN(c2cccc(-n3cnc(Nc4cnc(C#N)cn4)c3)c2)C1` (single isomer, unassigned) [Example 109, 5-((1-(3-(3-((2-Hydroxyethyl)(methyl)amino)pyrrolidin-1-yl)phenyl)-1H-imidazol-4-yl)amino)pyrazine-2-carbonitrile], the IC50 was above 100000 nM in experiment [1] and 10 to 31.6 nM in experiment [2]. Take `CN1CCC2(CC1)CCN(c1ccc(-n3cnc(Nc4cnc(C#N)cn4)c3)cc1)C2` [Example 60, 5-((1-(4-(8-Methyl-2,8-diazaspiro[4.5]decan-2-yl)phenyl)-1H-imidazol-4-yl)amino)pyrazine-2-carbonitrile]: the concentration for half-maximal inhibition (IC50) was in the range of 10000 to 100000 nM in experiment [1] and 31.6 to 100 nM in experiment [2]. In the case of `CC(C)N1CCN(c2ccc(-n3cnc(Nc4cnc(C#N)cn4)c3)cc2)CC1` [Example 186, 5-((1-(4-(4-Isopropylpiperazin-1-yl)phenyl)-1H-imidazol-4-yl)amino)pyrazine-2-carbonitrile], the values for the IC50 in experiment [1] and in experiment [2] were above 100000 nM and 100 to 316 nM, respectively. Regarding `CN1CC[C@@H]2[C@H]1CCN2c1ccc(-n2cnc(Nc3cnc(C#N)cn3)c2)cc1` [Example 91, 5-((1-(4-((3aR,6aR)-4-Methylhexahydropyrrolo[3,2-b]pyrrol-1(2H)-yl)phenyl)-1H-imidazol-4-yl)amino)pyrazine-2-carbonitrile], the IC50 was in the range of 10000 to 100000 nM in experiment [1] and 10 to 31.6 nM in experiment [2]. `COc1cc(CN2CC[C@@H](F)C2)ccc1-n1cnc(Nc2cnc(C#N)cn2)c1` [Example 169]: the IC50 in experiment [1] is 10000 to 100000 nM; in experiment [2], 10 to 31.6 nM. As for `CN1CC2(C1)CN(c1ccc(-n3cnc(Nc4cnc(C#N)cn4)c3)cc1)C2` [Example 11, 5-((1-(4-(6-Methyl-2,6-diazaspiro[3.3]heptan-2-yl)phenyl)-1H-imidazol-4-yl)amino)pyrazine-2-carbonitrile], the IC50 in experiment [2] lay within 10 to 31.6 nM. `CN(C)C1CCN(c2ccc(-n3cnc(Nc4cnc(C#N)cn4)c3)cc2)CC1` [Example 37, 5-((1-(4-(4-(Dimethylamino)piperidin-1-yl)phenyl)-1H-imidazol-4-yl)amino)pyrazine-2-carbonitrile]: the IC50 in experiment [1] is 1000 to 10000 nM; in experiment [2], below 10 nM.

For `N#Cc1cnc(Nc2cn(-c3ccc(N4CCN5CCCC5C4)cc3)cn2)cn1` (single isomer, unassigned) [Example 117, 5-((1-(4-(Hexahydropyrrolo[1,2-a]pyrazin-2(1H)-yl)phenyl)-1H-imidazol-4-yl)amino)pyrazine-2-carbonitrile], the half-maximal inhibitory concentration (IC50) is above 100000 nM in experiment [1] and 10 to 31.6 nM in experiment [2].

Consider `N#Cc1cnc(Nc2cn(-c3ccc(N4CCC(N5CC(F)C5)C4)cc3)cn2)cn1` (single isomer, unassigned) [Example 129, 5-((1-(4-(3-(3-Fluoroazetidin-1-yl)pyrrolidin-1-yl)phenyl)-1H-imidazol-4-yl)amino)pyrazine-2-carbonitrile], for which the IC50 in experiment [1] was above 100000 nM; in experiment [2], 31.6 to 100 nM.

Consider `CN(C)[C@@H]1CCN(c2ccc(-n3cnc(Nc4cnc(C#N)cn4)c3)cc2C(F)(F)F)C1` [Example 70, (R)-5-((1-(4-(3-(Dimethylamino)pyrrolidin-1-yl)-3-(trifluoromethyl)phenyl)-1H-imidazol-4-yl)amino)pyrazine-2-carbonitrile], for which the values for the IC50 in experiment [1] and in experiment [2] were 1000 to 10000 nM and 31.6 to 100 nM, respectively. Consider `CN(C)[C@H]1CN(c2ccc(-n3cnc(Nc4cnc(C#N)cn4)c3)cc2)C[C@@H]1F` [Example 63, 5-((1-(4-((3S,4S)-3-(Dimethylamino)-4-fluoropyrrolidin-1-yl)phenyl)-1H-imidazol-4-yl)amino)pyrazine-2-carbonitrile], for which the IC50 in experiment [1] is 1000 to 10000 nM; in experiment [2] it was below 10 nM. Turning to `COc1cc(N(C)C2CCN(C)CC2)ccc1-n1cnc(Nc2cnc(C#N)cn2)c1` [Example 14, 5-((1-(2-Methoxy-4-(methyl(1-methylpiperidin-4-yl)amino)phenyl)-1H-imidazol-4-yl)amino)pyrazine-2-carbonitrile], the IC50 in experiment [1] lay within 10000 to 100000 nM; in experiment [2], 10 to 31.6 nM.

With `CN1CCC2(CCN2c2ccc(-n3cnc(Nc4cnc(C#N)cn4)c3)cc2)C1` (single isomer, unassigned) [Example 119, 5-((1-(4-(6-Methyl-1,6-diazaspiro[3.4]octan-1-yl)phenyl)-1H-imidazol-4-yl)amino)pyrazine-2-carbonitrile], the results for the IC50 in experiment [1] and in experiment [2] were 10000 to 100000 nM and 10 to 31.6 nM, respectively. Turning to `CC(C)C1CN(C2CCN(c3ccc(-n4cnc(Nc5cnc(C#N)cn5)c4)cc3)C2)C1` (single isomer, unassigned) [Example 133, 5-((1-(4-(3-(3-Isopropylazetidin-1-yl)pyrrolidin-1-yl)phenyl)-1H-imidazol-4-yl)amino)pyrazine-2-carbonitrile], the IC50 in experiment [1] is 10000 to 100000 nM; in experiment [2], below 10 nM. Turning to `Cc1ccc(-n2cnc(Nc3cnc(C#N)cn3)c2)cc1N1CC[C@@H](N(C)C)C1` [Example 58, (R)-5-((1-(3-(3-(Dimethylamino)pyrrolidin-1-yl)-4-methylphenyl)-1H-imidazol-4-yl)amino)pyrazine-2-carbonitrile], the IC50 in experiment [1] is 10000 to 100000 nM; in experiment [2] it was 31.6 to 100 nM. Consider `COc1cc(N2CC[C@@H](N3CCC3)C2)ccc1-n1cnc(Nc2cnc(C#N)cn2)c1` [Example 103, (R)-5-((1-(4-(3-(Azetidin-1-yl)pyrrolidin-1-yl)-2-methoxyphenyl)-1H-imidazol-4-yl)amino)pyrazine-2-carbonitrile], for which the values for the IC50 in experiment [1] and in experiment [2] were 1000 to 10000 nM and below 10 nM, respectively. In turn, `CN[C@H]1CN(c2ccc(-n3cnc(Nc4cnc(C#N)cn4)c3)cc2)C[C@H]1OC` [Example 163, 5-((1-(4-((3R,4S)-3-Methoxy-4-(methylamino)pyrrolidin-1-yl)phenyl)-1H-imidazol-4-yl)amino)pyrazine-2-carbonitrile] came in with an IC50 in experiment [2] of 10 to 31.6 nM. `CCN1CCN(c2ccc(-n3cnc(Nc4cnc(C#N)cn4)c3)cc2)CC1` [Example 185, 5-((1-(4-(4-Ethylpiperazin-1-yl)phenyl)-1H-imidazol-4-yl)amino)pyrazine-2-carbonitrile] registered an IC50 in experiment [2] of 10 to 31.6 nM.

For `Cc1cc(N2CCN(C)CC2)ccc1-n1cnc(Nc2cnc(C#N)cn2)c1` [Example 145, 5-((1-(2-methyl-4-(4-Methylpiperazin-1-yl)phenyl)-1H-imidazol-4-yl)amino)pyrazine-2-carbonitrile], in experiment [2], the IC50 is 316 to 1000 nM. Same read-out and setting: the same measure for `N#Cc1cnc(Nc2cn(-c3ccc(N4CC[C@@H](N5CCCC5)C4)cc3)cn2)cn1` [Example 147, (R)-5-((1-(4-([1,3′-Bipyrrolidin]-1′-yl)phenyl)-1H-imidazol-4-yl)amino)pyrazine-2-carbonitrile]: 10 to 31.6 nM; for `CN(C)CC1CCN(c2ccc(-n3cnc(Nc4cnc(C#N)cn4)c3)cc2)C1` (single isomer, unassigned) [Example 115, 5-((1-(4-(3-((Dimethylamino)methyl)pyrrolidin-1-yl)phenyl)-1H-imidazol-4-yl)amino)pyrazine-2-carbonitrile]: 31.6 to 100 nM; for `CN1CCN(C(=O)c2ccc(-n3cnc(Nc4cnc(C#N)cn4)c3)cc2)CC1` [Example 144, 5-((1-(4-(4-Methylpiperazine-1-carbonyl)phenyl)-1H-imidazol-4-yl)amino)pyrazine-2-carbonitrile]: 100 to 316 nM. In experiment [2], `CN(C)[C@H]1CCN(c2ccc(-n3cnc(Nc4cnc(C#N)cn4)c3)cc2)C1` [Example 15, (S)-5-((1-(4-(3-(Dimethylamino)pyrrolidin-1-yl)phenyl)-1H-imidazol-4-yl)amino)pyrazine-2-carbonitrile] returned an IC50 of 31.6 to 100 nM.
